Measured values reported in PubChem BioAssay (NCI).
Where “and” joins values, the source holds several entries; their conditions need not be identical. Identical values can stand only once.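 Assay format: 96-well plates, 48-hour exposure. At the GI50, growth is halved. TGI marks complete inhibition of growth.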

Assays:
Test in all cases: NCI-60 cell line screen, 48 h
SF-539 CNS = tested on: SF-539 CNS
KM12 colon = tested on: KM12 colon
M14 melanoma = tested on: M14 melanoma
CCRF-CEM leukemia = tested on: CCRF-CEM leukemia
786-0 renal = tested on: 786-0 renal
SK-MEL-28 melanoma = tested on: SK-MEL-28 melanoma
RXF 393 renal = tested on: RXF 393 renal
HCT-116 colon = tested on: HCT-116 colon
OVCAR-8 ovarian = tested on: OVCAR-8 ovarian
DU-145 prostate = tested on: DU-145 prostate

Row | Structure (SMILES) | TGI (SF-539 CNS) [µM] | TGI (KM12 colon) | TGI (M14 melanoma) | TGI (CCRF-CEM leukemia) [µM] | TGI (786-0 renal) [µM] | TGI (SK-MEL-28 melanoma) [µM] | TGI (RXF 393 renal) [µM] | TGI (HCT-116 colon) [µM] | TGI (OVCAR-8 ovarian) [µM] | GI50 (SF-539 CNS) [µM] | GI50 (KM12 colon) | GI50 (M14 melanoma) | GI50 (786-0 renal) | GI50 (SK-MEL-28 melanoma) | GI50 (RXF 393 renal) [µM] | GI50 (HCT-116 colon) | GI50 (OVCAR-8 ovarian) [nM] | GI50 (DU-145 prostate) | TGI (DU-145 prostate) | GI50 (CCRF-CEM leukemia)
1 | Cc1ccc(/C=N/NS(=O)(=O)c2ccccc2)cc1C | > 100 | > 100 µM | > 100 µM | > 100 | > 100 | > 100 | > 100 | > 100 | > 100 | – | – | – | – | – | – | – | – | – | – | –
2 | Cc1[nH]c2ccccc2c1C1=NO/C(=N\O)C(c2c(C)[nH]c3ccccc23)C1 (configuration not stated) | > 80.3 | > 100 µM | > 89.6 µM | > 100 | > 100 | > 100 | 87.1 | > 78.5 | > 100 | – | – | – | – | – | – | – | – | – | – | –
3 | COc1ccc(C[C@]23CCC(=O)N2CCc2cc(OC)c(O)cc23)cc1O | > 100 | > 100 µM | > 100 µM | > 100 | > 100 | > 100 | > 100 | > 100 | 78.6 | – | – | – | – | – | – | – | – | – | – | –
4 | O=C(O)CCSC(=O)Nc1cccc2ccccc12 | > 100 | > 100 µM | > 100 µM | > 100 | > 100 | > 100 | > 100 | > 100 | > 100 | – | – | – | – | – | – | – | – | – | – | –
5 | CCn1c(SCC(=O)Nc2cc(C(F)(F)F)ccc2Cl)nc2ccccc2c1=O | > 100 | > 100 µM | > 100 µM | – | > 100 | > 100 | 66.9 | > 100 | > 100 | 40.1 | > 100 µM | 90.7 µM | 48.6 µM | 53.9 µM | 15.6 | 17.4 µM | 32200 | 32300 nM | > 100 µM | –
6 | CCC[CH2][Sn]1([CH2]CCC)[O]CC[S]1 | 2.03 | 3.02 µM | 2.68 µM | 0.814 | 1.7 | 0.898 | 0.332 | 2.9 | 2.68 | 0.736 | 1.19 µM | 0.872 µM | 0.516 µM | 0.238 µM | 0.156 | 1.16 µM | 1190 | – | – | 177 nM
7 | FC(F)(F)c1nc(SCc2ccc(Cl)cc2)n[nH]1 | > 100 | > 100 µM | > 100 µM | – | > 100 | > 100 | > 100 | > 100 | > 100 | – | – | – | – | – | – | – | – | – | > 100 µM | –
8 | O=C1NC2(CCCC2)C2CCCCC12O (configuration not stated) | > 100 | > 100 µM | > 100 µM | > 100 | > 100 | > 100 | > 100 | > 100 | > 100 | – | – | – | – | – | – | – | – | – | – | –
9 | COc1cc2c(c(OC)c1OC)-c1c(c3ccc([N+](=O)[O-])cc3c(=O)n1CCCBr)C2=O | 17.9 | > 100 µM | 59.1 µM | > 100 | > 100 | > 100 | > 100 | > 100 | > 100 | 4.5 | 60.7 µM | 21 µM | 35.1 µM | > 100 µM | 24.4 | 18.7 µM | 49800 | – | – | 14800 nM
10 | COc1ccc2nc3c(cc2c1)C(=O)CC(c1ccccc1)C3 (configuration not stated) | 5.15 | > 100 µM | – | > 100 | > 100 | > 100 | – | > 100 | > 100 | 1.22 | 0.469 µM | – | 2.23 µM | 4.09 µM | – | 0.383 µM | 934 | 595 nM | > 58.1 µM | 291 nM
11 | N#CC(C(=O)CCC(=O)Nc1cccc(C(F)(F)F)c1)c1ccccc1 (configuration not stated) | > 100 | > 100 µM | > 100 µM | > 100 | > 100 | > 100 | > 100 | > 100 | > 100 | – | – | – | – | – | – | – | – | – | – | –
12 | O=S(=O)(O)n1ccnc1 (tested in a mixture with another compound) | > 100 | > 100 µM | > 100 µM | – | > 100 | > 100 | > 100 | > 100 | > 100 | – | – | – | – | – | – | – | – | – | > 100 µM | –
13 | O=C(c1ccccc1)C1OC1C(=O)c1ccccc1 (configuration not stated) | 12.6 | 11.9 µM | 11.9 µM | – | 84.9 | 44.5 | 10.2 | 11.4 | > 100 | 3.77 | 3.51 µM | 2.78 µM | 4.35 µM | 4.28 µM | 2.37 | 2.09 µM | 4020 | 1320 nM | 4.28 µM | –
14 | CCOC(=O)c1c(-c2ccc(OC)c(O)c2)c(C#N)c(=S)n(C2OC(COC(C)=O)C(OC(C)=O)C(OC(C)=O)C2OC(C)=O)c1-c1ccccc1 (configuration not stated) | – | 83.1 µM and > 100 µM | 40.6 µM and > 100 µM | > 100 | > 100 | > 100 | > 100 | > 100 | > 100 | – | 27 µM and > 100 µM | 18.9 µM and > 100 µM | 35.1 µM and > 100 µM | 32.5 µM and > 100 µM | – | 35.7 µM and > 100 µM | – | 27300 nM and > 100000 nM | 76.3 µM and > 100 µM | 47200 nM and > 100000 nM
15 | CCN1C(=O)N(CC)C2C1NN=c1s/c(=C\c3ccc(C(F)(F)F)cc3)c(=O)n12 (configuration not stated) | 0.785 | > 34.9 µM | > 36.1 µM | 17 | > 39 | 38.7 | – | > 32.8 | 28.2 | 0.247 | 0.309 µM | 0.311 µM | 1.23 µM | 2.4 µM | – | 0.343 µM | 467 | 410 nM | > 32.1 µM | 328 nM
16 | CCCCC(OC(=O)c1ccc(N)cc1)C(=O)Nc1nc(CC(=O)OCC)cs1 (configuration not stated) | > 100 | > 100 µM | > 100 µM | – | > 100 | > 100 | > 100 | > 100 | > 100 | 33.1 | 41.4 µM | 32.8 µM | 53.6 µM | 42.2 µM | 38.1 | 37.3 µM | 40400 | 36000 nM | > 100 µM | –
17 | O=C1c2cc3c(cc2-c2c1c1ccc(F)cc1c(=O)n2C[C@H](O)[C@H](O)[C@H](O)CO)OCO3 | – | – | 4 µM | 31.3 | 21.6 | 1.51 | 0.502 | – | 0.66 | – | – | 0.18 µM | 0.209 µM | 0.282 µM | 0.193 | – | 203 | 199 nM | 1.59 µM | 47.9 nM
18 | O=C(C=Nc1ccccc1S)c1ccco1 | 27.3 | 31.3 µM | 28.7 µM | 10.2 | 31.8 | 30.1 | 29 | 10.4 | 27.3 | – | – | 15 µM | 16.6 µM | – | – | – | – | – | – | –
